Test results taken from US10981911B2, “Imidazopyrrolopyridine as inhibitors of the JAK family of kinases” (Janssen Pharmaceutica NV, priority 2016, dated 2021).
pIC50: −log10 of the molar value.

Legend:
Assay type in all cases: biochemical
[1] = molecular target: JAK1-JH1JH2 (Homo sapiens (Human), UniProt P23458); experiment: Enzymatic inhibition assay (RapidFire HTMS), JAK1; settings: 12.5 μM ATP, 200 μM substrate; read-out: JAK1-JH2JH1 IC50
Procedure, shortened: (§1)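 Quenched with 0.5% TFA plus internal-standard peptide; phosphorylated product quantified by RapidFire C4 SPE–ESI-MS, 11-point 1:3 or 1:4 dilutions in duplicate.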

[2] = molecular target: JAK2-JH1JH2 (Homo sapiens (Human), UniProt O60674); experiment: Enzymatic inhibition assay (RapidFire HTMS), JAK2; settings: 30 μM ATP, 40 μM substrate
JAK2-JH1JH2, sequence (O60674 532-1132): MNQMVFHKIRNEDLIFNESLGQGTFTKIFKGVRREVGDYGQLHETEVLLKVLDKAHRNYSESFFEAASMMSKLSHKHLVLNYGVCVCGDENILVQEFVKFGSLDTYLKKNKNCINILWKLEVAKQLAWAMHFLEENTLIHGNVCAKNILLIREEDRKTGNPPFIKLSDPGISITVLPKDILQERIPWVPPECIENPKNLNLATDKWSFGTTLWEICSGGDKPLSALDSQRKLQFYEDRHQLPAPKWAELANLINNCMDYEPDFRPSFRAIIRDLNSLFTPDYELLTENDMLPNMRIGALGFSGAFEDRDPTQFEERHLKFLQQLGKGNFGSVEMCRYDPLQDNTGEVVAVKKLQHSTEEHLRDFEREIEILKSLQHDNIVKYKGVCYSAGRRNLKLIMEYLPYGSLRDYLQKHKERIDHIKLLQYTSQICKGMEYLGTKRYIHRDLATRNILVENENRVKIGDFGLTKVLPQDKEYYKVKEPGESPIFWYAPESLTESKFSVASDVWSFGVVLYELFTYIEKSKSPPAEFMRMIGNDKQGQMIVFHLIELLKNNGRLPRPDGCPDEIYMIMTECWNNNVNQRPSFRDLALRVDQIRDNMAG
Procedure, shortened: as §1

[3] = molecular target: JAK3-JH1JH2 (Homo sapiens (Human), UniProt P52333); experiment: Enzymatic inhibition assay (RapidFire HTMS), JAK3; settings: 150 μM ATP, 40 μM substrate
JAK3-JH1JH2, sequence (P52333 512-1124): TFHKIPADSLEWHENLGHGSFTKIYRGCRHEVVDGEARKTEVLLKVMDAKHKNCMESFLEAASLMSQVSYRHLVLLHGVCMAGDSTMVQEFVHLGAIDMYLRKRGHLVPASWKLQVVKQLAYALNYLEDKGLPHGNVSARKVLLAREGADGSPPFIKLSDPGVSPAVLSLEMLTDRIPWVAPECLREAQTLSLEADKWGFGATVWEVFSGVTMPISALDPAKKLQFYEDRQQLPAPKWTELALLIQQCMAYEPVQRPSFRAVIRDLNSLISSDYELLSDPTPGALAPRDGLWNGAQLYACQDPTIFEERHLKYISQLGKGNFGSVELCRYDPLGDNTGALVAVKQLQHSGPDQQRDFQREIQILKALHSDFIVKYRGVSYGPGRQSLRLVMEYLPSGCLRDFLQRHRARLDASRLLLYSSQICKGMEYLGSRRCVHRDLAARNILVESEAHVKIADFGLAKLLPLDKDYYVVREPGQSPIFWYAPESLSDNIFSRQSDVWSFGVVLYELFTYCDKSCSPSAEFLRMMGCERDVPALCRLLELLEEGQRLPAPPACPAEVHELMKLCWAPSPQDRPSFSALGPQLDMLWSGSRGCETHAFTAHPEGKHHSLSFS
Procedure, shortened: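 Compounds tested in duplicate over 11-point 1:3 or 1:4 dilution series; no-enzyme wells as negative control. After 45 min at 25 °C, TFA quench with internal standard, and phosphorylated product quantified by RapidFire–QTrap mass spectrometry relative to the uninhibited reaction.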

[4] = molecular target: Tyk2-JH1JH2 (Homo sapiens (Human), UniProt P29597, C1142A/C936A); experiment: Enzymatic inhibition assay (RapidFire HTMS), Tyk2; settings: 50 μM ATP, 200 μM substrate
Tyk2-JH1JH2, sequence (P29597 580-1182 C936A/C1142A): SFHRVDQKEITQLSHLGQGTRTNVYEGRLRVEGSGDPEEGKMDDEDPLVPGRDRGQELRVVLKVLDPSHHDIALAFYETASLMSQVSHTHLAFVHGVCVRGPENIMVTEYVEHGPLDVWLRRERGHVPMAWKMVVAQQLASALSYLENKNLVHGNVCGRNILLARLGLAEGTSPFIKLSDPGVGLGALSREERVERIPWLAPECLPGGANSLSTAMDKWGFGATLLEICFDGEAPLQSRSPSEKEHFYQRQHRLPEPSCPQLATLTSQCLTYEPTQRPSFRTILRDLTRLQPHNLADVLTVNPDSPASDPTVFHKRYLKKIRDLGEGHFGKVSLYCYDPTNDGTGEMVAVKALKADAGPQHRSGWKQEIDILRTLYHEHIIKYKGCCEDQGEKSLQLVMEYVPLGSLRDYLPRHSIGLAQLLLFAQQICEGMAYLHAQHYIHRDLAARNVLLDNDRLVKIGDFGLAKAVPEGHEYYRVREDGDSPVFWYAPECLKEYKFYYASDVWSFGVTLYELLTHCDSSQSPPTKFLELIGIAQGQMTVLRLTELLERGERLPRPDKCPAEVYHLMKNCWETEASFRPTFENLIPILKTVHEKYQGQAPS
Procedure, shortened: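 Compounds were tested in duplicate as 11-point 1:3 or 1:4 DMSO dilutions (≤0.25% DMSO final) in 20 μL reactions at 25 °C for 90 min, with Tyk2 pre-incubated 30 min with 2 mM ATP. Reactions were quenched with TFA plus internal standard peptide, and phosphorylated product was quantified by RapidFire C4 SPE–ESI MS.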

JAK1-JH1JH2, sequence (P23458 574-1154): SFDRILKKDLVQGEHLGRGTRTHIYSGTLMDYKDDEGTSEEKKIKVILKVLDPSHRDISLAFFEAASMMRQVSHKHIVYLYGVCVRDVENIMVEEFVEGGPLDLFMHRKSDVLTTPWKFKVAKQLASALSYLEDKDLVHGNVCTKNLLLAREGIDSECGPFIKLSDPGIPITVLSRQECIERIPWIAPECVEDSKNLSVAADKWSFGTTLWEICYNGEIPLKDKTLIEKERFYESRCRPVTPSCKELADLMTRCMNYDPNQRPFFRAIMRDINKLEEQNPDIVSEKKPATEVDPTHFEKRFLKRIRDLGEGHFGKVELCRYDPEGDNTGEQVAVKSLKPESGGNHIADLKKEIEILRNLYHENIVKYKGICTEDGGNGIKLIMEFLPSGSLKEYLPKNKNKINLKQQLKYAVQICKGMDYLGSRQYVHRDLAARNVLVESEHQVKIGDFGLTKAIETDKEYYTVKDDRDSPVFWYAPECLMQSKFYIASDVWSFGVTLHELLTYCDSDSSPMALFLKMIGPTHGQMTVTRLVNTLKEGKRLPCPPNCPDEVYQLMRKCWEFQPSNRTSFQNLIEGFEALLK

Structure (SMILES) | pIC50 [1] | pIC50 [2] | pIC50 [3] | pIC50 [4]
CC1CC(C)CC(NC(=O)Cc2nc3cnc4[nH]ccc4c3n2[C@H]2CC[C@H](CC#N)CC2)C1 (some centres unmarked) [Ex. 75, 2-(1-((1r,4r)-4-(Cyanomethyl)cyclohexyl)-1,6-dihydroimidazo[4,5-d]pyrrolo[2,3-b]pyridin-2-yl)-N-(3,5-dimethylcyclohexyl)acetamide] | 9.40 | 8.47 | 7.21 | 8.04
N#CC[C@H]1CC[C@H](n2c(CC(=O)N3CC[C@H](O)C3)nc3cnc4[nH]ccc4c32)CC1 [Ex. 42, 2-((1S,4r)-4-(2-(2-((S)-3-Hydroxypyrrolidin-1-yl)-2-oxoethyl)imidazo[4,5-d]pyrrolo[2,3-b]pyridin-1(6H)-yl)cyclohexyl)acetonitrile] | 9.70 | 7.61 | 6.36 | 8.11
CC(C)(O)CCNC(=O)Cc1nc2cnc3[nH]ccc3c2n1[C@H]1CC[C@H](CC#N)CC1 [Ex. 59, 2-(1-((1r,4r)-4-(Cyanomethyl)cyclohexyl)-1,6-dihydroimidazo[4,5-d]pyrrolo[2,3-b]pyridin-2-yl)-N-(3-hydroxy-3-methylbutyl)acetamide] | 9.52 | 8.17 | 6.91 | 8.14
CC(C)(C)CNC(=O)Cc1nc2cnc3[nH]ccc3c2n1[C@H]1CC[C@H](CC#N)CC1 [Ex. 44, 2-(1-((1r,4r)-4-(Cyanomethyl)cyclohexyl)-1,6-dihydroimidazo[4,5-d]pyrrolo[2,3-b]pyridin-2-yl)-N-neopentylacetamide] | 9.70 | 8.27 | 7.28 | 8.22
CC(C)(O)CNC(=O)Cc1nc2cnc3[nH]cc(Cl)c3c2n1[C@H]1CC[C@H](CC#N)CC1 [Ex. 188, 2-(8-chloro-1-((1r,4r)-4-(cyanomethyl)cyclohexyl)-1,6-dihydroimidazo[4,5-d]pyrrolo[2,3-b]pyridin-2-yl)-N-(2-hydroxy-2-methylpropyl)acetamide] | 8.49 | 7.44 | 7.88 | 6.91
N#CC[C@H]1CC[C@H](n2c(CC(=O)N[C@H]3C[C@H](O)C3)nc3cnc4[nH]ccc4c32)CC1 [Ex. 37, 2-(1-((1r,4r)-4-(Cyanomethyl)cyclohexyl)-1,6-dihydroimidazo[4,5-d]pyrrolo[2,3-b]pyridin-2-yl)-N-((1R,3R)-3-hydroxycyclobutyl)acetamide] | 9.70 | 8.34 | 7.41 | 8.37
N#CC[C@H]1CC[C@H](n2c(CN/C(CC3CCCCC3)=N/O)nc3cnc4[nH]ccc4c32)CC1 [Ex. 95] | 9.30 | 9.22 | 7.73 | 8.85
N#CC[C@H]1CC[C@H](n2c(-c3cnn(Cc4cocn4)c3)nc3cnc4[nH]ccc4c32)CC1 [Ex. 166, 2-((1r,4r)-4-(2-(1-(Oxazol-4-ylmethyl)-1H-pyrazol-4-yl)imidazo[4,5-d]pyrrolo[2,3-b]pyridin-1(6H)-yl)cyclohexyl)acetonitrile] | 8.74 | 7.77 | 6.84 | 7.43
N#CC[C@H]1CC[C@H](n2c(CN/C(=N/O)C3CCCCC3)nc3cnc4[nH]ccc4c32)CC1 [Ex. 204, N-((1-((1r,4r)-4-(Cyanomethyl)cyclohexyl)-1,6-dihydroimidazo[4,5-d]pyrrolo[2,3-b]pyridin-2-yl)methyl)-N′-hydroxycyclohexanecarboximidamide] | 8.17 | 7.88 | 6.37 | 7.97
N#CC[C@H]1CC[C@H](n2c(C3CCN(c4ccc(C#N)cc4)CC3)nc3cnc4[nH]ccc4c32)CC1 [Ex. 76, 4-(4-(1-((1r,4r)-4-(Cyanomethyl)cyclohexyl)-1,6-dihydroimidazo[4,5-d]pyrrolo[2,3-b]pyridin-2-yl)piperidin-1-yl)benzonitrile] | 9.40 | 7.63 | 5.92 | 7.77
COCC(C)NC(=O)c1nc2cnc3[nH]ccc3c2n1[C@H]1CC[C@H](CC#N)CC1 (some centres unmarked) [Ex. 179, 1-((1r,4r)-4-(Cyanomethyl)cyclohexyl)-N-(1-methoxypropan-2-yl)-1,6-dihydroimidazo[4,5-d]pyrrolo[2,3-b]pyridine-2-carboxamide] | 8.85 | 7.68 | 6.19 | 7.52
N#CC[C@H]1CC[C@H](n2c(CN/C(=N\O)C3CC3)nc3cnc4[nH]ccc4c32)CC1 [Ex. 110, (EZ)—N-((1-((1r,4r)-4-(Cyanomethyl)cyclohexyl)-1,6-dihydroimidazo[4,5-d]pyrrolo[2,3-b]pyridin-2-yl)methyl)-N′-hydroxycyclopropanecarboximidamide] | 9.22 | 7.54 | 6.38 | 7.76
CC(C)(O)CN1CCC(c2nc3cnc4[nH]ccc4c3n2[C@H]2CC[C@H](CC#N)CC2)CC1 [Ex. 168, 2-((1r,4r)-4-(2-(1-(2-Hydroxy-2-methylpropyl)piperidin-4-yl)imidazo[4,5-d]pyrrolo[2,3-b]pyridin-1(6H)-yl)cyclohexyl)acetonitrile] | 8.70 | 7.47 | 5.80 | 7.51
N#CC[C@H]1CC[C@H](n2c(Cn3c(-c4ccccc4)noc3=O)nc3cnc4[nH]ccc4c32)CC1 [Ex. 203, 2-((1r,4r)-4-(2-((5-Oxo-3-phenyl-1,2,4-oxadiazol-4(5H)-yl)methyl)imidazo[4,5-d]pyrrolo[2,3-b]pyridin-1(6H)-yl)cyclohexyl)acetonitrile] | 8.07 | 6.82 | 5.33 | 7.38
N#CC[C@H]1CC[C@H](n2c(CC(=O)Nc3ccncc3)nc3cnc4[nH]ccc4c32)CC1 [Ex. 118, 2-(1-((1r,4r)-4-(Cyanomethyl)cyclohexyl)-1,6-dihydroimidazo[4,5-d]pyrrolo[2,3-b]pyridin-2-yl)-N-(pyridin-4-yl)acetamide] | 9.15 | 8.46 | 7.30 | 8.27
N#CC[C@H]1CC[C@H](n2c(Cn3c(C4CC4)noc3=O)nc3cnc4[nH]ccc4c32)CC1 [Ex. 165, 2-((1r,4r)-4-(2-((3-Cyclopropyl-5-oxo-1,2,4-oxadiazol-4(5H)-yl)methyl)imidazo[4,5-d]pyrrolo[2,3-b]pyridin-1(6H)-yl)cyclohexyl)acetonitrile] | 8.77 | 6.92 | 5.57 | 7.52
N#CC[C@H]1CC[C@H](n2c(COC(=O)Nc3ccccc3)nc3cnc4[nH]ccc4c32)CC1 [Ex. 109, (1-((1r,4r)-4-(Cyanomethyl)cyclohexyl)-1,6-dihydroimidazo[4,5-d]pyrrolo[2,3-b]pyridin-2-yl)methyl Phenylcarbamate] | 9.22 | 8.12 | 6.87 | 7.95
N#CC[C@H]1CC[C@H](n2c(CC(=O)N[C@H]3CC[C@@H](O)CC3)nc3cnc4[nH]ccc4c32)CC1 [Ex. 47, 2-(1-((1r,4r)-4-(Cyanomethyl)cyclohexyl)-1,6-dihydroimidazo[4,5-d]pyrrolo[2,3-b]pyridin-2-yl)-N-((1S,4S)-4-hydroxycyclohexyl)acetamide] | 9.70 | 8.64 | 7.41 | 8.29
N#CC[C@H]1CC[C@H](n2c(CC(=O)NCc3ncc[nH]3)nc3cnc4[nH]ccc4c32)CC1 [Ex. 36, N-((1H-imidazol-2-yl)methyl)-2-(1-((1r,4r)-4-(cyanomethyl)cyclohexyl)-1,6-dihydroimidazo[4,5-d]pyrrolo[2,3-b]pyridin-2-yl)acetamide] | 9.70 | 9.10 | 7.92 | 8.66
N#CC[C@H]1CC[C@H](n2c(CC(=O)N3CCC(Cc4ccccc4)CC3)nc3cnc4[nH]ccc4c32)CC1 [Ex. 87, 2-((1r,4r)-4-(2-(2-(4-Benzylpiperidin-1-yl)-2-oxoethyl)imidazo[4,5-d]pyrrolo[2,3-b]pyridin-1(6H)-yl)cyclohexyl)acetonitrile] | > 9.40 | 7.56 | 6.56 | 7.99
C[Si](C)(C)CNC(=O)Cc1nc2cnc3[nH]ccc3c2n1[C@H]1CC[C@H](CC#N)CC1 [Ex. 99, 2-(1-((1r,4r)-4-(Cyanomethyl)cyclohexyl)-1,6-dihydroimidazo[4,5-d]pyrrolo[2,3-b]pyridin-2-yl)-N-((trimethylsilyl)methyl)acetamide] | 9.30 | 7.51 | 6.56 | 7.53
N#CC[C@H]1CC[C@H](n2c(CC(=O)NCc3ccncn3)nc3cnc4[nH]ccc4c32)CC1 [Ex. 14, 2-(1-((1r,4r)-4-(Cyanomethyl)cyclohexyl)-1,6-dihydroimidazo[4,5-d]pyrrolo[2,3-b]pyridin-2-yl)-N-(pyrimidin-4-ylmethyl)acetamide] | 10.00 | 8.74 | 7.36 | 8.55
N#CC[C@H]1CC[C@H](n2c(CC(=O)NC34CCC(CO)(CC3)C4)nc3cnc4[nH]ccc4c32)CC1 [Ex. 131, 2-(1-((1r,4r)-4-(Cyanomethyl)cyclohexyl)-1,6-dihydroimidazo[4,5-d]pyrrolo[2,3-b]pyridin-2-yl)-N-(4-(hydroxymethyl)bicyclo[2.2.1]heptan-1-yl)acetamide] | 9.10 | 8.25 | 7.00 | 7.98
